Reference: patent US6706509B2, “Oncoprotein protein kinase” (The Regents of the University of California, priority 1993, dated 2004)

Tested on: JNK1
Assay: Epitope-tagged JNK1 protein kinase activity in transfected COS cells
Format: cell-based
Settings: 10 nM EGF or 100 nM TPA
Description: JNK1 protein kinase activity was detected in the immune-complex. Immunecomplex kinase assays using either M2 immunoprecipitates or purified JNK1, JNK-46, and ERK1 or ERK2 were performed at 30° C. for 20 mins using 3 μg of substrate, 20 μM ATP and 5 μCi of [γ-^32P]ATP in 30 μl of kinase buffer (25 mM Hepes (pH 7.6), 20 mM MgCl2, 20 mM β-glycerophosphate, 20 mM p-nitrophenyl phosphate, 0.1 mM Na orthovanadate, 2 mM DTT). The reactions were terminated with Laemmli sample buffer and the products were resolved by SDS-PAGE (12% gel). JNK1 protein activity was also measured after SDS-PAGE by the in-gel kinase assay with the substrate GST-cJun(1-79) as described by Hibi, et al., supra, (1993). Solid-phase protein kinase assays were performed as described by Hibi, et al., supra, (1993). Clarified cell extracts were incubated with GST fusion proteins immobilized on GSH-agarose beads. After 3 hours at 4° C., the beads were washed extensively and bound JNK1 was detected by the addition of [γ-^32P]ATP. The reaction was terminated after 10 mins at 30° C. and the products were resolved by SDS-PAGE. The incorporation of [^32P]phosphate was visualized by autoradiography and quantitated with a phosphorimager and ImageQuant software (Molecular Dynamics Inc., Sunnyvale, Calif.). The methods used for phosphopeptide mapping (Boyle, et al., Cell 64:573-584, 1991) and phosphoamino acid analysis (Alvarez, et al., J. Biol. Chem 266:15227-15285, 1991) were described previously.
Epitope-tagged JNK1 was expressed in COS cells. Control experiments were performed using mock-transfected cells. After 48 hours, the cells were treated either without or with 100 nM TPA, 10 nM EGF, or 80 J/m^2 UV-C and incubated for 1 hr. The cells were lysed in RIPA buffer and the JNK1 proteins were isolated by immunoprecipitation with the M2 monoclonal antibody. JNK1 protein kinase activity was measured after SDS-PAGE using an in-gel kinase assay with the substrate GST-cJun(1-79) polymerized into the gel.
COS-1 cells were maintained in. Dulbecco's modified Eagle's medium supplemented with 5% […] (Gibco-BRL). Metabolic labeling with [^32P]phosphate was performed by incubation of cells in phosphate-free modified Eagle's medium (Flow Laboratories Inc.) supplemented with 0.1% fetal bovine serum and 1 mCi/ml [^32P]orthophosphate (Dupont-NEN). COS cells were treated with 10 nM EGF or 100 nM thorbol myristate acetate. The cells were then incubated for defined times at 37° C. prior to harvesting and measurement of JNK1 protein kinase activity. The data are presented as arbitrary units. […] In contrast, exposure to UV radiation caused a marked increase in JNK1 activity.

EGF: EGF, used at 10 nM to treat COS cells (NSDSECPLSHDGYCLHDGVCMYIEALDKYACNCVVGYIGERCQYRDLKWWELR; UniProt P01133 971-1023, looked up)
JNK1 activation: low level of JNK1 activation | duration of JNK1 activation: approximately 2 hours
